Article PMC12518634, “The noncanonical function of liver-type phosphofructokinase potentiates the efficacy of HDAC inhibitors in cancer” (Signal Transduction and Targeted Therapy, 2025)
Counter-ions that a name gives are not always drawn. Like-named read-outs stand apart in the source and are kept apart here. Where no end group is shown, it is not given here.

Key:
TFK1 cells = assay: Cell viability assay (CellTiter-Glo, 72 h), GI50; assay type: cell-based, human; conditions: TFK1 sgPFKL-1 and sgPFKL-2 versus sgNC, Supplementary Fig. 2d
Experimental: Cell viability was assessed using the CellTiter-Glo luminescent cell viability assay (Vazyme, DD1101) following the manufacturer’s instructions. Briefly, 5000 cells per well were seeded into a 96-well white bottom permeable plate. Different concentrations of drugs were added to each well. After 72 h of treatment, a mixture of CellTier reagent and serum-free culture medium was prepared at a 1:1 ratio, and 100 μL of the mixture was added to each well. After incubation at 37 °C for 15 min, the luminescence was measured using a microplate reader (Synergy H1, Biotek). All the experiments were conducted in triplicate. Cell viability (relative luminescence) was defined as the luminescence of the drug treatment relative to that of the vehicle control.

1405R3 = assay: High-throughput drug screen, CellTiter-Glo viability, 72 h; assay type: cell-based, human; design: AUC: scale not given here; conditions: 1405R3 DSRT analysis; for AUC: area under the dose-response curve; for MIN: lower asymptote of fitted dose-response curve; for EC50: 72 h, fitted dose-response curve, Min.Conc.tested 1, Max.Conc.tested 10000, read-out: EC50; for SLOPE: slope of fitted dose-response curve
Summary of the method: (§1)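 Cholangiocarcinoma cells were seeded at 3000/well in 384-well plates and dosed after 24 h. Drugs were tested at 10, 1, 0.1, 0.01 and 0.001 μM in duplicate for 72 h, with viability read by CellTiter-Glo luminescence.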

783C-6 = assay: as above; assay type: cell-based, human; design: AUC: scale not given here; conditions: for AUC: area under the dose-response curve; for EC50: 72 h, read-out: EC50
Summary of the method: as §1

HuCCT1 cells [1] = assay: CCK-8 cytotoxicity of the peptides; assay type: cell-based, human; conditions: CCK-8 assay, n=3 biological replicates, Supplementary Fig. 13c
Experimental: The cell proliferation rates were determined with a CCK-8 Cell Counting Kit (Vazyme, A311) in strict accordance with the provided protocol. The colony formation capacity was assessed by plating the cells in 6-well plates (5000 cells/well), followed by drug treatment over a 7-day period. Finally, the resulting colonies were subjected to crystal violet staining for subsequent quantification.
(§2) Supplementary Fig. 13. […] Scale bars, 100 μm. i Body weight of each group of HuCCT1 xenografts at the end of treatment is plotted (n = 6 mice per group, two-way ANOVA). j The tumor weight of each group of HuCCT1 xenografts at the end of treatment is plotted (n = 6 mice per group, Student’s t test).

HuCCT1 cells [2] = assay: Confocal imaging of peptide infiltration into cells; assay type: in vitro ADME, human; conditions: confocal images, Supplementary Fig. 13b
Excerpt: as §2

[3] = 783C-6 cells, DSS of DSRT analysis
[4] = 783C-6 cells, minimum of dose-response curve
[5] = 783C-6 cells, slope of fitted dose-response curve
[6] = 783C-6 DSRT analysis, DSS calculated from the dose-response curve
[7] = 783C-6 DSRT analysis, MIN of the fitted dose-response curve
[8] = 783C-6 DSRT analysis, CellTiter-Glo viability, fitted dose-response curve, Min.Conc.tested 1, Max.Conc.tested 10000
[9] = 783C-6 DSRT analysis, slope of the fitted dose-response curve

Molecule | AUC (1405R3) | DSS (1405R3; drug sensitivity score) | MIN (1405R3) | DSS (783C-6; [3]) | AUC (783C-6; 783C-6 cells) | MIN (783C-6; [4]) | SLOPE (1405R3) | further results
C[C@@H]1NC(=O)[C@H]2CCCN2C(=O)[C@H](CCCCCC(=O)[C@@H]2CO2)NC(=O)[C@@H](C)NC1=O [HC-Toxin] |  |  |  |  |  |  |  | effect of PFKL knockout on drug efficacy (cell viability) (TFK1 cells): significantly inhibited drug efficacy
COc1cc2c(NC3CCN(C(C)C)CC3)nc(C3CCCCC3)nc2cc1OCCCN1CCCC1 [UNC0638] | 19.7 | 1.9 | 59.1 | 2 | 21.3 | 73.8 |  | EC50 (1405R3; Homo sapiens, CellTiter-Glo viability, GI50): 3370 nM; EC50 (783C-6; Homo sapiens): 1540 nM
COc1cc2c(NC3CCN(C(C)C)CC3)nc(N3CCC(F)(F)CC3)nc2cc1OCCCN1CCCC1 [UNC0642] | 0.1 | 0 | 99.3 | 0 | 7.2 | 94 |  | 
CCCC(CCC)C(=O)O [Valproic acid sodium salt] | 8.4 | 0 | 92.2 | 0 | 4.4 | 85.4 |  | 
CCCC(CCC)C(=O)O [Valproic acid] | 18.4 | 0 | 88.1 | 0 | 4.4 | 85.5 |  | 
C[C@@H]1COC(Nc2ccc3ncnc(Nc4ccc(OCc5nccs5)c(Cl)c4)c3c2)=N1 [Varlitinib] | 11.5 | 0 | 91.8 | 1.5 | 22.8 | 79.7 |  | 
O=C(NNS(=O)(=O)c1ccccc1F)c1cc(F)cc(-c2ccccn2)c1 [WM-1119] | 51.4 | 0 | 66.9 | 0 | 7.3 | 75.9 |  | 
Cc1cc(-c2ccccc2)cc(C(=O)NNS(=O)(=O)c2cccc(O)c2)c1F [WM-3835] | 14.5 | 0 | 90.6 | 0 | 15.7 | 93.1 |  | 
Cc1cc(-c2ccccc2)cc(C(=O)NNS(=O)(=O)c2ccccc2)c1F [WM-8014] | 16.3 | 0 | 89.5 | 0 | 5.5 | 81.8 | -0.1 | SLOPE (783C-6; [5]): -1
CCC(=O)CCCCC[C@@H]1NC(=O)[C@H]2CCCCN2C(=O)[C@H]([C@@H](C)CC)NC(=O)[C@H](Cc2cn(OC)c3ccccc23)NC1=O [apicidin] |  |  |  |  |  |  |  | effect of PFKL knockout on drug efficacy (cell viability) (TFK1 cells): significantly inhibited drug efficacy
O=C(/C=C/c1cccc(S(=O)(=O)Nc2ccccc2)c1)NO [belinostat, reference compound] | 121.5 |  | 0 |  |  |  |  | DSS (1405R3; DSS): 12.9; EC50 (1405R3; Homo sapiens, CellTiter-Glo): 684 nM; DSS (783C-6; [6]): 19; MIN (783C-6; [7]): 0.2; AUC (783C-6; 783C-6 DSRT analysis): 173.8; EC50 (783C-6; Homo sapiens): 195 nM; effect of PFKL knockout on drug efficacy (cell viability) (TFK1 cells): significantly inhibited drug efficacy
O=C(CCCCCCC(=O)Nc1ccccc1)NO [vorinostat, reference compound] | 87 | 10 | 6.1 | 11.5 | 104.1 | 3.6 |  | effect of PFKL knockout on drug efficacy (cell viability) (TFK1 cells): significantly inhibited drug efficacy
(-)-Parthenolide | 33.7 |  | 34.2 |  |  |  | -2.5 | DSS (1405R3; DSS): 3.6; EC50 (1405R3; CellTiter-Glo): 3140 nM; EC50 (783C-6; [8]): 1460 nM; DSS (783C-6; [6]): 2.7; MIN (783C-6; [7]): 68.4; AUC (783C-6; 783C-6 DSRT analysis): 26.5; SLOPE (783C-6; [9]): -2.5
AR-42 | 98.5 |  | 1.2 |  |  |  | -1.5 | DSS (1405R3; DSS): 11; EC50 (1405R3; CellTiter-Glo): 1030 nM; EC50 (783C-6; [8]): 1080 nM; DSS (783C-6; [6]): 10.5; MIN (783C-6; [7]): 2.3; AUC (783C-6; 783C-6 DSRT analysis): 96.3; SLOPE (783C-6; [9]): -1.3
AZD4547 | 4.8 |  | 88.1 |  |  |  |  | DSS (1405R3; DSS): 0; EC50 (783C-6; [8]): 2230 nM; DSS (783C-6; [6]): 3.2; MIN (783C-6; [7]): 54.8; AUC (783C-6; 783C-6 DSRT analysis): 29.6
CDRIKQSASGKRRVFIVETMRRRRRRRR [∆562-R8] |  |  |  |  |  |  |  | cytotoxicity (HuCCT1 cells [1]): low cytotoxicity; cellular permeability (HuCCT1 cells [2]): good cellular permeability
CDRIKQSASGTKRRVFIVETMRRRRRRRR [PFKL-552-572-R8] |  |  |  |  |  |  |  | cytotoxicity (HuCCT1 cells [1]): low cytotoxicity; cellular permeability (HuCCT1 cells [2]): good cellular permeability
NKL 22 | 6.3 | 0.2 | 83.7 | 0 | 3.5 | 92.5 | -2.5 | SLOPE (783C-6; [5]): -2.5
OG-L002 | 0.1 | 0 | 100 | 0 | 3 | 94.7 | -0.1 | SLOPE (783C-6; [5]): -0.5
TC-H 106 | 47 | 2.6 | 75.6 | 5.3 | 61.5 | 48.5 | -0.4 | EC50 (783C-6; 783C-6 cells, DSRT analysis, CellTiter-Glo viability, concentrations tested 1 to 10000 (unit inferred), GI50): 923 nM; SLOPE (783C-6; [5]): -0.6
